Legend:
Test in all cases: Zones of inhibition of impregnated catheter segments, modified Kirby-Bauer method
MRSA = type: cell-based, Staphylococcus aureus; conditions: for zone of inhibition at 100000 µg/mL: catheter impregnated with 100 mg/ml of each agent
Experimental: (§1) To evaluate the antimicrobial activity of central venous catheters treated with α-lipoic acid or its combination with gentamicin, segments of 7 French triple lumen polyurethane central venous catheters were impregnated with α-lipoic acid, gentamicin, or the combination of lipoic acid and gentamicin using the same patented method described in Example 1 with 50 mg/ml of each agent (for the final solution volume). After the impregnation process and drying, zones of inhibition were performed on one-centimeter segments according to a modified Kirby-Bauer method against MSSE, MRSE, MRSA, K. pneumoniae, E. coli, P. mirabilis, Pseudomonas aeruginosa, and Candida albicans. Each segment was half embedded in the center of a Muller-Hinton agar plate that had been previously inoculated with an individual organism. Prior to placing the catheter segments in agar, each organism was grown for 18 hours in TSB to a concentration of 0.5 McFarland (10^8 cfu/ml). A cotton swab was placed in the suspension and streaked across the surface of the Muller-Hinton agar plate to cover the entire plate. All plates were placed in a 37° C. incubator for 24 hours. Zones were measured in mm after the incubation period (Table 2).
(§2) To evaluate the antimicrobial activity of central venous catheters treated with α-lipoic acid or its combination with doxycycline, segments of 7 French triple lumen polyurethane central venous catheters were impregnated with doxycycline or the combinations of α-lipoic acid and doxycycline using the same patented method described in Example 1 (U.S. Pat. No. 6,589,591) with 50 mg/ml of each agent (for the final solution volume). After the impregnation process and drying, zones of inhibition were performed on one-centimeter segments according to a modified Kirby-Bauer method against MSSE, MRSE, MRSA, K. pneumoniae, E. coli, P. aeruginosa, P. mirabilis, and C. albicans as described in Example 2. Zones of inhibition were measured in mm after the incubation period (Table 3).
(§3) To evaluate the antimicrobial activity of central venous catheters treated with lipoamide or its combination with levofloxacin, segments of 7 French triple lumen polyurethane central venous catheters were impregnated with levofloxacin or the combinations of lipoamide and levofloxacin using the same patented method described in Example 1 (U.S. Pat. No. 6,589,591) with 100 mg/ml (final solution volume) of each agent. After the impregnation process and drying, zones of inhibition were performed on one-centimeter segments according to a modified Kirby-Bauer method against MSSE, MRSE, MRSA, vancomycin-resistant Enterococcus (VRE), K. pneumoniae, E. coli, P. aeruginosa, P. mirabilis, and C. albicans as described in Example 2. Zones of inhibition were measured in mm after the incubation period (Table 4).
as §3, with “doxycycline,” for “levofloxacin,”, “doxycycline” for “levofloxacin”, “5).” for “4).”
(§4) To evaluate the antimicrobial activity of central venous catheters treated with dihydrolipoic acid, segments of 7 French triple lumen polyurethane central venous catheters were impregnated with dihydrolipoic acid using the same patented method described in Example 1 (U.S. Pat. No. 6,589,591) with 25 mg/ml (final solution volume) of the agent. […]

MSSE = type: cell-based, Staphylococcus epidermidis; conditions: for zone of inhibition at 100000 µg/mL: catheter impregnated with 100 mg/ml of each agent
Experimental: as §1, §2, §3
as §3, with “doxycycline,” for “levofloxacin,”, “doxycycline” for “levofloxacin”, “5).” for “4).”
as §4

MRSE = type: cell-based, Staphylococcus epidermidis; conditions: for zone of inhibition at 100000 µg/mL: catheter impregnated with 100 mg/ml of each agent
Experimental: as §1, §2, §3
as §3, with “doxycycline,” for “levofloxacin,”, “doxycycline” for “levofloxacin”, “5).” for “4).”
as §4

Candida albicans = type: cell-based; conditions: for zone of inhibition at 100000 µg/mL: catheter impregnated with 100 mg/ml of each agent
Experimental: as §1, §2, §3
as §3, with “doxycycline,” for “levofloxacin,”, “doxycycline” for “levofloxacin”, “5).” for “4).”
as §4

Proteus mirabilis = type: cell-based; conditions: for zone of inhibition at 100000 µg/mL: catheter impregnated with 100 mg/ml of each agent
Experimental: as §1, §2, §3
as §3, with “doxycycline,” for “levofloxacin,”, “doxycycline” for “levofloxacin”, “5).” for “4).”
as §4

Pseudomonas aeruginosa = type: cell-based; conditions: Pseudomonas aeruginosa; for zone of inhibition at 100000 µg/mL: Pseudomonas aeroginosa, catheter impregnated with 100 mg/ml of each agent
Experimental: as §1, §2, §3
as §3, with “doxycycline,” for “levofloxacin,”, “doxycycline” for “levofloxacin”, “5).” for “4).”
as §4

Klebsiella pneumoniae I = type: cell-based; conditions: for zone of inhibition at 100000 µg/mL: catheter impregnated with 100 mg/ml of each agent
Experimental: as §1, §2, §3
as §3, with “doxycycline,” for “levofloxacin,”, “doxycycline” for “levofloxacin”, “5).” for “4).”
as §4

Escherichia coli = type: cell-based; conditions: for zone of inhibition at 100000 µg/mL: catheter impregnated with 100 mg/ml of each agent
Experimental: as §1, §2, §3
as §3, with “doxycycline,” for “levofloxacin,”, “doxycycline” for “levofloxacin”, “5).” for “4).”
as §4

Klebsiella pneumoniae II = type: cell-based; conditions: for zone of inhibition at 100000 µg/mL: Klebsiella pneumoniae II, catheter impregnated with 100 mg/ml of each agent
Experimental: as §1, §2, §3
as §3, with “doxycycline,” for “levofloxacin,”, “doxycycline” for “levofloxacin”, “5).” for “4).”
as §4

[1] = tested on: vancomycin-resistant Enterococcus (VRE); type: cell-based; conditions: Enterococcus, catheter impregnated with 100 mg/ml of each agent
Experimental: as §1
(§5) To evaluate the antimicrobial activity of central venous catheters treated with lipoamide or its combination with levofloxacin, segments of 7 French triple lumen polyurethane central venous catheters were impregnated with levofloxacin or the combinations of lipoamide and levofloxacin using the same patented method described in Example 1 (U.S. Pat. No. 6,589,591) with 100 mg/ml (final solution volume) of each agent. […] Zones of inhibition were measured in mm after the incubation period (Table 4).
as §5, with “doxycycline,” for “levofloxacin,”, “doxycycline” for “levofloxacin”, “5).” for “4).”
To evaluate the antimicrobial activity of central venous catheters treated with dihydrolipoic acid, segments of 7 French triple lumen polyurethane central venous catheters were impregnated with dihydrolipoic acid using the same patented method described in Example 1 (U.S. Pat. No. 6,589,591) with 25 mg/ml (final solution volume) of the agent. […] Zones of inhibition were measured in mm after the incubation period (Table 6).

[2] = Staphylococcus epidermidis, catheter impregnated with 50 mg/ml of each agent, 37° C., 24 hours
[3] = catheter impregnated with 50 mg/ml of each agent, 37° C., 24 hours

| Compound | zone of inhibition at 100000 µg/mL (MRSA; Staphylococcus aureus) | zone of inhibition at 100000 µg/mL (MSSE; Staphylococcus epidermidis) | zone of inhibition at 100000 µg/mL (MRSE; Staphylococcus epidermidis) | zone of inhibition at 100000 µg/mL (Candida albicans) | zone of inhibition at 100000 µg/mL (Proteus mirabilis) | zone of inhibition at 100000 µg/mL (Pseudomonas aeruginosa) | zone of inhibition at 100000 µg/mL (Klebsiella pneumoniae I) | zone of inhibition at 100000 µg/mL (Escherichia coli) | zone of inhibition at 100000 µg/mL (Klebsiella pneumoniae II) | zone of inhibition at 100000 µg/mL [1] | also measured |
| --- | --- | --- | --- | --- | --- | --- | --- | --- | --- | --- | --- |
| C[C@H]1c2cccc(O)c2C(=O)C2=C(O)[C@]3(O)C(=O)C(C(N)=O)=C(O)[C@@H](N(C)C)[C@@H]3[C@@H](O)[C@@H]21 [Doxycycline, doxycycline] | 19 mm | 20 mm | 38 mm | 5 mm | 0 mm | 11 mm | 19 mm | 22 mm | 7 mm | 30 mm | zone of inhibition at 50000 µg/mL (MRSA; Staphylococcus aureus, catheter impregnated with 50 mg/ml of each agent, 37° C., 24 hours): 22 mm; zone of inhibition at 50000 µg/mL (MSSE; [2]): 21 mm; zone of inhibition at 50000 µg/mL (MRSE; [2]): 35 mm; zone of inhibition at 50000 µg/mL (Candida albicans; [3]): 13 mm; zone of inhibition at 50000 µg/mL (Proteus mirabilis; [3]): 4 mm; zone of inhibition at 50000 µg/mL (Pseudomonas aeruginosa; [3]): 13 mm; zone of inhibition at 50000 µg/mL (Klebsiella pneumoniae I; [3]): 17 mm; zone of inhibition at 50000 µg/mL (Escherichia coli; [3]): 24 mm; zone of inhibition at 50000 µg/mL (Klebsiella pneumoniae II; Klebsiella pneumoniae, Klebsielle pneuminiae II, catheter impregnated with 50 mg/ml of each agent, 37° C., 24 hours): 13 mm |
| C[C@H]1COc2c(N3CCN(C)CC3)c(F)cc3c(=O)c(C(=O)O)cn1c23 [Levofloxacin, levofloxacin] | 21 mm | 30 mm | 31 mm | 0 mm | 31 mm | 19 mm | 24 mm | 27 mm | 18 mm | 7 mm |  |
| gentamicin |  |  |  |  |  |  |  |  |  |  | Zones of inhibition (MRSA; [3]): 15 mm; Zones of inhibition (MSSE; [3]): 21 mm; Zones of inhibition (MRSE; [3]): 22 mm; Zones of inhibition (Candida albicans; [3]): 0 mm; Zones of inhibition (Proteus mirabilis; [3]): 14 mm; Zones of inhibition (Pseudomonas aeruginosa; [3]): 5 mm; Zones of inhibition (Klebsiella pneumoniae I; [3]): 13 mm; Zones of inhibition (Escherichia coli; [3]): 12 mm; Zones of inhibition (Klebsiella pneumoniae II; Klebsielle pneuminiae II, catheter impregnated with 50 mg/ml of each agent, 37° C., 24 hours): 0 mm |

From patent US9956319B2, “Compositions useful as antibiofilm or antimicrobial agents and methods using same” (BAYLOR COLLEGE OF MEDICINE, priority 2012, dated 2018)
